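Test compounds were applied to cells in 96-well plates for 48 hours at 5 doses. GI50: concentration for 50% inhibition of growth.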 Active and inactive are the calls of the source. Rule as the data show it: active = GI50 up to about 1.1 µM and inactive = higher.
What was measured:
Experiment in all cases: NCI tumour cell line growth inhibition, 48 h
[1] = tested on: OVCAR-5
[2] = tested on: UACC-62
[3] = tested on: NCI-H522
[4] = tested on: HL-60
[5] = tested on: MDA-N
[6] = tested on: MDA-MB-435
[7] = tested on: SF-295
[8] = tested on: CCRF-CEM
[9] = tested on: NCI-H23
[10] = tested on: A549
[11] = tested on: U-251
[12] = tested on: ACHN
[13] = tested on: UO-31
[14] = tested on: SK-MEL-5
[15] = tested on: EKVX
[16] = tested on: SF-539
[17] = tested on: SNB-19
[18] = tested on: 786-0
[19] = tested on: IGROV-1
[20] = tested on: NCI-H460

SMILES | GI50 [1] | GI50 [2] | GI50 [3] | GI50 [4] | GI50 [5] | GI50 [6] | GI50 [7] | GI50 [8] | GI50 [9] | GI50 [10] | GI50 [11] | GI50 [12] | GI50 [13] | GI50 [14] | GI50 [15] | GI50 [16] | GI50 [17] | GI50 [18] | GI50 [19] | GI50 [20]
COc1ccc2nc3ccccc3c(NCCCCCCN(CCCl)CCCl)c2c1 | 0.45 µM (active) | 0.0628 µM (active) | 0.0338 µM (active) | 0.0122 µM (active) | 0.057 µM (active) | 0.0482 µM (active) | 0.0767 µM (active) | 0.0107 µM (active) | 0.15 µM (active) | 0.054 µM (active) | 0.0528 µM (active) | 0.0184 µM (active) | 0.123 µM (active) | 0.304 µM (active) | 0.895 µM (active) | 0.215 µM (active) | 0.328 µM (active) | 0.0161 µM (active) | 0.148 µM (active) | 0.0346 µM (active)
C=C1C(=O)C=C[C@]2(C)CC[C@H]3C(=C)C(=O)O[C@@H]3[C@@H]12 | 1.33 µM (inactive) | 1.96 µM (inactive) | 0.753 µM (active) | 1.9 µM (inactive) | 1.88 µM (inactive) | 1.57 µM (inactive) | 15.1 µM (inactive) | 0.579 µM (active) | 2.63 µM (inactive) | 11.6 µM (inactive) | 2.13 µM (inactive) | 0.9 µM (active) | 1.43 µM (inactive) | 2.34 µM (inactive) | 3.17 µM (inactive) | 0.562 µM (active) | 14.6 µM (inactive) | 0.461 µM (active) | 1.29 µM (inactive) | 12.1 µM (inactive)
O=C1CN(c2ccc(Cl)cc2)C(=O)CN1NCNN1CC(=O)N(c2ccc(Cl)cc2)CC1=O | > 100 µM (inactive) | > 100 µM (inactive) | > 100 µM (inactive) | > 100 µM (inactive) | > 100 µM (inactive) | > 100 µM (inactive) | > 100 µM (inactive) | > 100 µM (inactive) | > 100 µM (inactive) | > 100 µM (inactive) | > 100 µM (inactive) | > 100 µM (inactive) | > 100 µM (inactive) | > 100 µM (inactive) | > 100 µM (inactive) | > 100 µM (inactive) | > 100 µM (inactive) | > 100 µM (inactive) | > 100 µM (inactive) | > 100 µM (inactive)
CN/C(=N\N=C1/C(=O)Nc2ccccc21)SCC(=O)c1ccc(Br)cc1 | 32 µM (inactive) | 50.1 µM (inactive) | 15.5 µM (inactive) | 3.48 µM (inactive) | 21.3 µM (inactive) | 9.57 µM (inactive) | 18.7 µM (inactive) | 5.46 µM (inactive) | 15.6 µM (inactive) | 5.01 µM (inactive) | 5.21 µM (inactive) | 15.5 µM (inactive) | 1.04 µM (active) | 22.9 µM (inactive) | 22.3 µM (inactive) | 6.38 µM (inactive) | 32.4 µM (inactive) | 5.61 µM (inactive) | 31.1 µM (inactive) | 10.2 µM (inactive)
CC(=O)OCCOc1cc2c([nH]c3ccccc32)c(C)c2cccc1-2 | 2.97 µM (inactive) | 2.39 µM (inactive) | 1.84 µM (inactive) | 3.05 µM (inactive) | 3.16 µM (inactive) | 2.29 µM (inactive) | 3.28 µM (inactive) | 3.38 µM (inactive) | 1.94 µM (inactive) | 3.85 µM (inactive) | 1.69 µM (inactive) | 1.75 µM (inactive) | 1.75 µM (inactive) | 2.77 µM (inactive) | 1.86 µM (inactive) | 1.91 µM (inactive) | 3.3 µM (inactive) | 2.84 µM (inactive) | 1.77 µM (inactive) | 2.59 µM (inactive)
CSC(=S)Nc1cccc(C)n1 | > 100 µM (inactive) | > 100 µM (inactive) | > 100 µM (inactive) | > 100 µM (inactive) | > 100 µM (inactive) | > 100 µM (inactive) | > 100 µM (inactive) | > 100 µM (inactive) | > 100 µM (inactive) | > 100 µM (inactive) | > 100 µM (inactive) | > 100 µM (inactive) | > 100 µM (inactive) | 76.6 µM (inactive) | > 100 µM (inactive) | > 100 µM (inactive) | > 100 µM (inactive) | > 100 µM (inactive) | > 100 µM (inactive) | > 100 µM (inactive)
Nc1[nH]nc2ccccc12 | 60 µM (inactive) | 73.1 µM (inactive) | > 100 µM (inactive) | > 100 µM (inactive) | > 100 µM (inactive) | > 100 µM (inactive) | 77.8 µM (inactive) | > 100 µM (inactive) | > 100 µM (inactive) | > 100 µM (inactive) | > 100 µM (inactive) | > 100 µM (inactive) | 83.4 µM (inactive) | > 100 µM (inactive) | > 100 µM (inactive) | > 100 µM (inactive) | > 100 µM (inactive) | > 100 µM (inactive) | > 100 µM (inactive) | > 100 µM (inactive)
O=c1[nH]c2nccnc2c2c([N+](=O)[O-])cccc12 | > 100 µM (inactive) | > 100 µM (inactive) | 49.9 µM (inactive) | > 100 µM (inactive) | > 100 µM (inactive) | > 100 µM (inactive) | > 100 µM (inactive) | > 100 µM (inactive) | > 100 µM (inactive) | > 100 µM (inactive) | > 100 µM (inactive) | > 100 µM (inactive) | 44.1 µM (inactive) | 88.3 µM (inactive) | > 100 µM (inactive) | > 100 µM (inactive) | > 100 µM (inactive) | > 100 µM (inactive) | > 100 µM (inactive) | > 100 µM (inactive)

Source: ChEMBL document CHEMBL1201862, “PubChem BioAssay data set” (2004)
